Measurements taken from US20240270762A1, “PENICILLIN-BINDING PROTEIN INHIBITORS” (priority 2021, published 2024).
≈ marks a conversion by molar mass, not a printed value.

Assays:
[1] = test system: N. gonorrhoeae CDC-0197; assay: Liquid broth MIC in Fastidious broth; details: Neisseria gonorrhoeae, CDC0197, read-out: Minimum Inhibitory Concentration (MIC), N. gonorrhoeae CDC-0197
Description: ATCC 49226, FA1090, MS11, WHO G, WHO L, and WHO M produce wild type or wild-type like PBP2. WHO K, WHO X, WHO Z, WHO Q, and CDC-0197 produce mosaic PBP2. Liquid broth-based assays were used for antibacterial testing of PBP inhibitors in Neisseria gonorrhoeae. Briefly, cryo-preserved bacterial cultures of clinical strains were streaked for isolation on Chocolate Agar (72 g/L (2×) GC Agar Base (BD #228950) and 2% (2×) Hemoglobin was autoclaved at 121° C. for 20 minutes to sterilize. Once cooled to ˜50° C. the 2×GC Agar Base and 2× Hemoglobin solutions are combined and 1% IsoVitaleX Enrichment (BD #211876) was added to the solution). Strains were incubated at 36° C. and 5% CO2 to allow growth of colonies, 24 hours before inoculum preparation. 2-fold serial dilutions of test compounds were conducted in a 96 well plate with a final volume of 75 μL per well at 2-fold the final desired concentration in Fastidious broth (Remel #R07664). For preparation of assay inoculum, a direct suspension was prepared by aseptically swabbing 10-15 colonies from agar plates into culture tubes containing 2 mL of fresh sterile saline. After the dilution plates were set up, direct suspensions were then diluted in a cuvette containing sterile saline and the optical density was measured at 600 nm. Inocula were diluted such that 75 μL of this culture in Fastidious broth results in a starting bacterial concentration of 5×10^5 CFU/mL when added to the dilution plates. The plates were incubated for ˜24 hours at 36° C. and 5% CO2.

[2] = test system: K. pneumoniae UMM; assay: microbe, parasite or virus in culture; assay type: cell-based; details: Klebsiella pneumoniae, read-out: MIC K. pneumoniae UMM
[3] = test system: E. coli D22; assay: microbe, parasite or virus in culture; assay type: cell-based; details: Escherichia coli, D22, read-out: MIC E. coli D22
[4] = test system: N. gonorrhoeae MS11; assay: Liquid broth MIC in Fastidious broth; details: Neisseria gonorrhoeae, MS11, read-out: Minimum Inhibitory Concentration (MIC), N. gonorrhoeae MS11
[5] = test system: N. gonorrhoeae WHO G; assay: Liquid broth MIC in Fastidious broth; details: Neisseria gonorrhoeae, read-out: Minimum Inhibitory Concentration (MIC), N. gonorrhoeae WHO G
[6] = molecular target: T1, PBP2 from Neisseria gonorrhoeae (FA19) (Neisseria gonorrhoeae, UniProt P08149); assay: Bocillin-FL fluorescence polarization competition binding, N. gonorrhoeae PBP2; details: fluorescence polarization competition binding assay using Bocillin-FL, read-out: N. gonorrhoeae PBP2 Potency
T1 construct: made in house
T1 sequence (P08149 whole entry): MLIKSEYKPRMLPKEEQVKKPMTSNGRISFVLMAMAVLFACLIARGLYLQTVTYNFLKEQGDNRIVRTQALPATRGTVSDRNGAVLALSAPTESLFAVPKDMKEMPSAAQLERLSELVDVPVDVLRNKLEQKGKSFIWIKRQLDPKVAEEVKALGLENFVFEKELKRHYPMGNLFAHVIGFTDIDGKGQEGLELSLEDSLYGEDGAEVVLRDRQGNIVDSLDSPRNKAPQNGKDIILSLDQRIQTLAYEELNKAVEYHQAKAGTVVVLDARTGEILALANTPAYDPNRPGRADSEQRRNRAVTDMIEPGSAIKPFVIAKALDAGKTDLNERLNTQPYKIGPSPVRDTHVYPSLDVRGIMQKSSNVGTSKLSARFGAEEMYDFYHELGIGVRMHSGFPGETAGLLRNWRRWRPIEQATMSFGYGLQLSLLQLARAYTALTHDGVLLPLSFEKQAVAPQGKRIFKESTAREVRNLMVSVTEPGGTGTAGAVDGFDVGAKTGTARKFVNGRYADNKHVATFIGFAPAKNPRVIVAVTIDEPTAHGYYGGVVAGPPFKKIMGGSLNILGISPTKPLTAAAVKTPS
Description: To determine the ability of boronic acid-based test PBP inhibitors to bind Penicillin Binding Proteins (PBPs), Bocillin-FL (fluorescently-labeled penicillin V; ThermoFisher Scientific) was used in a fluorescence polarization (FP) competition binding assay to assess inhibitor binding to PBP3 from Escherichia coli (K-12), PBP3 from Pseudomonas aeruginosa (PAO1), PBP1a and PBP3 from Acinetobacter baumannii (ATCC 19606), and PBP2 from Neisseria gonorrhoeae (FA19). PBPs were cloned and purified as described previously (E. coli PBP3, King, D. T, et al., ACS Infectious Diseases 2015, 1, 175-184; P. aeruginosa PBP3, Han et. al., PNAS 2010, 107 (51), 22002-22007; A. baumannii PBPs, Penwell et. al., Antimicrob. Agents Chemother. 2015, 59 (3), 1680-1689; N. gonorrhoeae PBP2, Singh et. al., J. Biol. Chem. 2019, 294 (38), 14020-14032). To establish assay conditions for competition binding, enzyme titration/saturation binding experiments were initially performed. Bocillin-FL was prepared at 0.2 μM in a buffer comprised of 50 mM Hepes (pH 8.0), 300 mM NaCl and 10% (v/v) glycerol for reactions with E. coli, P. aeruginosa and N. gonorrhoeae PBPs, and 25 mM Tris (pH 8.0), 200 mM NaCl, 10% (v/v) glycerol and 0.005% (v/v) Tween 20 for reactions with A. baumannii PBPs. Saturation binding was performed by mixing 40 μl of PBP solutions ranging in concentrations from 0-24 μM with 40 μl of the 0.2 μM Bocillin-FL solution, in individual wells of a black 384-well microplate. FP was measured immediately upon mixing (Excitation, 490 nm; Emission, 520 nm; g-factor, 0.96), using a Cytation3 (BioTek) microplate reader and measured continuously for up to 120 minutes. […] The competition binding assay (80 μl final volume) was validated using beta-lactams and PBPs at final concentrations of: 1.5 μM for E. coli PBP3; 0.75 μM for P. aeruginosa PBP3; 1 μM for A. baumannii PBP1a; 0.2 μM for A. baumannii PBP3; and 0.25 μM for N. gonorrhoeae PBP2. Bocillin-FL was at 0.1 μM (0.05 μM with A. baumannii PBP1a) and beta-lactam concentrations ranged from 0-1,000 μM. E. coli PBP3 was incubated with increasing concentrations of ampicillin in a black 384-well microplate (Corning) for 30 minutes. P. aeruginosa PBP3 was incubated for 15 minutes with aztreonam, whereas A. baumannii PBP1a and PBP3 were incubated for 15 minutes with meropenem, and then Bocillin-FL was added followed immediately by the FP measurement for up to 60 minutes. […] The beta-lactam potency was reported as the concentration of beta-lactam required to reduce the amount of PBP bound-Bocillin-FL by 50% (EC50). […] Binding assays for boronic acid PBP inhibitors were performed in an identical fashion for the respective PBPs.

[7] = test system: P. aeruginosa ATCC 27853; assay: microbe, parasite or virus in culture; assay type: cell-based; details: Pseudomonas aeruginosa, ATCC27853, read-out: MIC P. aeruginosa ATCC 27853
[8] = test system: E. coli ATCC 25922; assay: microbe, parasite or virus in culture; assay type: cell-based; details: Escherichia coli, ATCC25922, read-out: MIC E. coli 25922
[9] = test system: N. gonorrhoeae WHO K; assay: Liquid broth MIC in Fastidious broth; details: Neisseria gonorrhoeae, read-out: Minimum Inhibitory Concentration (MIC), N. gonorrhoeae WHO K

| SMILES | MIC [1] | MIC [2] | MIC [3] | MIC [4] | MIC [5] | EC50 [6] | MIC [7] | MIC [8] | MIC [9] |
| --- | --- | --- | --- | --- | --- | --- | --- | --- | --- |
| CCN1CCN(C(=O)N[C@@H](C(=O)N[C@H]2Cc3ccc(F)c(C(=O)O)c3OB2O)c2ccc(P(=O)(O)O)cc2)C(=O)C1=O (single isomer, unassigned) [Example 10] | < 1 µg/mL | > 128 µg/mL | 8 to 16 µg/mL (≈ 13.2 to 26.4 µM) | < 1 µg/mL | < 1 µg/mL | < 10 µM | 32 to 64 µg/mL (≈ 52.8 to 106 µM) | > 128 µg/mL | < 1 µg/mL |
| CS(=O)(=O)N1CCN(C(=O)N[C@@H](C(=O)N[C@H]2Cc3cccc(C(=O)O)c3OB2O)c2ccc(P(=O)(O)O)c(F)c2F)C1=O (single isomer, unassigned) [Example 13] | < 1 µg/mL | > 128 µg/mL | 8 to 16 µg/mL (≈ 12.4 to 24.8 µM) | < 1 µg/mL | < 1 µg/mL | < 10 µM | > 128 µg/mL | > 128 µg/mL | < 1 µg/mL |
| CS(=O)(=O)N1CCN(C(=O)N[C@@H](C(=O)N[C@H]2Cc3cccc(C(=O)O)c3OB2O)c2ccc(P(=O)(O)O)c(F)c2)C1=O (single isomer, unassigned) [Example 15] | < 1 µg/mL | > 128 µg/mL | 2 to 4 µg/mL (≈ 3.18 to 6.37 µM) | < 1 µg/mL | < 1 µg/mL | < 10 µM | > 128 µg/mL | 32 to 64 µg/mL (≈ 50.9 to 102 µM) | < 1 µg/mL |
| CS(=O)(=O)N1CCN(C(=O)N[C@@H](C(=O)N[C@H]2Cc3cccc(C(=O)O)c3OB2O)c2cc(F)c(P(=O)(O)O)c(F)c2)C1=O (single isomer, unassigned) [Example 18] | < 1 µg/mL | 32 to 64 µg/mL (≈ 49.5 to 99 µM) | 8 to 16 µg/mL (≈ 12.4 to 24.8 µM) | < 1 µg/mL | < 1 µg/mL | < 10 µM | > 128 µg/mL | 32 to 64 µg/mL (≈ 49.5 to 99 µM) | < 1 µg/mL |
| CS(=O)(=O)N1CCN(C(=O)N[C@@H](C(=O)N[C@H]2Cc3ccc(F)c(C(=O)O)c3OB2O)c2ccc(P(=O)(O)O)c(F)c2)C1=O (single isomer, unassigned) [Example 19] | < 1 µg/mL | > 128 µg/mL | 8 to 16 µg/mL (≈ 12.4 to 24.8 µM) | < 1 µg/mL | < 1 µg/mL | < 10 µM | > 128 µg/mL | > 128 µg/mL | < 1 µg/mL |
| CCN1CCN(C(=O)N[C@@H](C(=O)N[C@H]2Cc3cccc(C(=O)O)c3OB2O)c2ccc(P(C)(=O)O)cc2)C(=O)C1=O (single isomer, unassigned) [Example 47] | 1 to 2 µg/mL (≈ 1.71 to 3.41 µM) | > 128 µg/mL | 2 to 4 µg/mL (≈ 3.41 to 6.82 µM) | < 1 µg/mL | < 1 µg/mL | < 10 µM | > 128 µg/mL | 8 to 16 µg/mL (≈ 13.6 to 27.3 µM) | 4 to 8 µg/mL (≈ 6.82 to 13.6 µM) |
| N[C@@H](C(=O)N[C@H]1Cc2cccc(C(=O)O)c2OB1O)c1ccc(P(=O)(O)O)cc1 (single isomer, unassigned) [Example 171] | > 64 µg/mL | > 128 µg/mL | > 128 µg/mL | > 64 µg/mL | > 64 µg/mL | 10 to 50 µM | > 128 µg/mL | > 128 µg/mL | > 64 µg/mL |
| O=C(O)c1cccc2c1OB(O)[C@@H](NC(=O)[C@@H](NC(=O)c1ccn[nH]c1=O)c1ccc(P(=O)(O)O)cc1)C2 (single isomer, unassigned) [Example 177] | 1 to 2 µg/mL (≈ 1.84 to 3.69 µM) | > 128 µg/mL | 32 to 64 µg/mL (≈ 59 to 118 µM) | 1 to 2 µg/mL (≈ 1.84 to 3.69 µM) | < 1 µg/mL | < 10 µM | > 128 µg/mL | > 128 µg/mL | 4 to 8 µg/mL (≈ 7.38 to 14.8 µM) |
| O=C(O)c1cccc2c1OB(O)[C@@H](NC(=O)[C@H](NC(=O)c1ccn[nH]c1=O)c1ccc(P(=O)(O)O)cc1)C2 (single isomer, unassigned) [Example 178] | < 1 µg/mL | 32 to 64 µg/mL (≈ 59 to 118 µM) | 2 to 4 µg/mL (≈ 3.69 to 7.38 µM) | < 1 µg/mL | < 1 µg/mL | < 10 µM | 32 to 64 µg/mL (≈ 59 to 118 µM) | > 128 µg/mL | 1 to 2 µg/mL (≈ 1.84 to 3.69 µM) |
| Cn1cccc(C(=O)N[C@@H](C(=O)N[C@H]2Cc3cccc(C(=O)O)c3OB2O)c2ccc(P(=O)(O)O)cc2)c1=O (single isomer, unassigned) [Example 182] | 1 to 2 µg/mL (≈ 1.8 to 3.6 µM) | > 128 µg/mL | 8 to 16 µg/mL (≈ 14.4 to 28.8 µM) | 1 to 2 µg/mL (≈ 1.8 to 3.6 µM) | < 1 µg/mL | < 10 µM | > 128 µg/mL | > 128 µg/mL | 4 to 8 µg/mL (≈ 7.2 to 14.4 µM) |
| O=C(N[C@H](C(=O)N[C@H]1Cc2cccc(C(=O)O)c2OB1O)c1ccc(P(=O)(O)O)cc1)c1ccc(C(F)(F)F)cn1 (single isomer, unassigned) [Example 192] | 1 to 2 µg/mL (≈ 1.69 to 3.37 µM) | > 128 µg/mL | 8 to 16 µg/mL (≈ 13.5 to 27 µM) | 1 to 2 µg/mL (≈ 1.69 to 3.37 µM) | 1 to 2 µg/mL (≈ 1.69 to 3.37 µM) | < 10 µM | > 128 µg/mL | > 128 µg/mL | 4 to 8 µg/mL (≈ 6.74 to 13.5 µM) |
| O=C(N[C@@H](C(=O)N[C@H]1Cc2cccc(C(=O)O)c2OB1O)c1ccc(P(=O)(O)O)cc1)c1ccc(C(F)(F)F)cn1 (single isomer, unassigned) [Example 193] | < 1 µg/mL | > 128 µg/mL | 2 to 4 µg/mL (≈ 3.37 to 6.74 µM) | < 1 µg/mL | < 1 µg/mL | < 10 µM | > 128 µg/mL | 32 to 64 µg/mL (≈ 53.9 to 108 µM) | 1 to 2 µg/mL (≈ 1.69 to 3.37 µM) |
| O=C(O)c1c(F)ccc2c1OB(O)[C@@H](NC(=O)C(NC(=O)N1CCN(Cc3ccc(O)c(O)c3Cl)C(=O)C1=O)c1ccc(P(=O)(O)O)cc1)C2 (stereo partly drawn) [Example 8, (3R)-3-(2-(4-(2-chloro-3,4-dihydroxybenzyl)-2,3-dioxopiperazine-1-carboxamido)-2-(4-phosphonophenyl)acetamido)-7-fluoro-2-hydroxy-3,4-dihydro-2H-benzo[e][1,2]oxaborinine-8-carboxylic acid] | 1 to 2 µg/mL (≈ 1.36 to 2.72 µM) | 2 to 4 µg/mL (≈ 2.72 to 5.44 µM) | < 1 µg/mL | < 1 µg/mL | < 1 µg/mL | < 10 µM | < 1 µg/mL | 2 to 4 µg/mL (≈ 2.72 to 5.44 µM) | 1 to 2 µg/mL (≈ 1.36 to 2.72 µM) |
| CS(=O)(=O)N1CCN(C(=O)NC(C(=O)N[C@H]2Cc3cccc(C(=O)O)c3OB2O)c2ccc(P(=O)(O)O)c(Cl)c2)C1=O (stereo partly drawn) [Example 11, (3R)-3-(2-(3-chloro-4-phosphonophenyl)-2-(3-(methylsulfonyl)-2-oxoimidazolidine-1-carboxamido)acetamido)-2-hydroxy-3,4-dihydro-2H-benzo[e][1,2]oxaborinine-8-carboxylic acid] | < 1 µg/mL | > 128 µg/mL | 8 to 16 µg/mL (≈ 12.4 to 24.8 µM) | < 1 µg/mL | < 1 µg/mL | < 10 µM | > 128 µg/mL | 32 to 64 µg/mL (≈ 49.6 to 99.3 µM) | < 1 µg/mL |
| CS(=O)(=O)N1CCN(C(=O)NC(C(=O)N[C@H]2Cc3cccc(C(=O)O)c3OB2O)c2ccc(P(=O)(O)O)c(F)c2)C1=O (stereo partly drawn) [Example 12, (3R)-3-(2-(3-fluoro-4-phosphonophenyl)-2-(3-(methylsulfonyl)-2-oxoimidazolidine-1-carboxamido)acetamido)-2-hydroxy-3,4-dihydro-2H-benzo[e][1,2]oxaborinine-8-carboxylic acid] | < 1 µg/mL | > 128 µg/mL | 2 to 4 µg/mL (≈ 3.18 to 6.37 µM) | < 1 µg/mL | < 1 µg/mL | < 10 µM | > 128 µg/mL | 32 to 64 µg/mL (≈ 50.9 to 102 µM) | < 1 µg/mL |
